Where two headings read alike, the source gives them in different places.
Legend:
PANC1 = experiment: MTT assay, pancreatic cancer cell line; assay type: cell-based, human; details: PANC1, 48 h, read-out: IC50 of Oxaliplatin
BxPC3 = experiment: MTT assay, pancreatic cancer cell line; assay type: cell-based, human; details: BxPC3, 48 h, read-out: IC50 of Oxaliplatin
HCT-116 + ch3 = experiment: MTT assay, MMR-proficient colon cancer cell line; assay type: cell-based
Description: (§1) The use of NSC-30049 as a chemopreventive agent for the treatment of colon cancer was also tested. In one experiment, NSC-30049 in combination with temozolomide was administered to colon cancer cell lines, including mismatch repair (MMR) proficient and MMR deficient cancer cell lines (Table 4). MMR proficient colon cancer cell lines tested included HCT-116+ch3, SW480, and HT29. MMR deficient cancer cell lines tested included HCT-116 and LoVo. Cells were pre-treated for 2 h with […] concentrations of NSC-30049 prior to treatment with temozolomide. After the treatment cells were allowed to grow for 72 hours. The cell growth inhibition was determined by MTT assay. Data presented are the mean±SE of three different estimations. The p value as compared to control of the Student's t-test is given in parenthesis. * p<0.05; ** p<0.01; *** p<0.001. Increasing the concentration of NSC-30049 decreased the IC50 of temozolomide for all cell lines tested, regardless of whether they were MMR proficient or deficient.
(§2) In addition to temozolomide, oxaliplatin is another chemotherapeutic agent used for the treatment of colon cancer. In another experiment, NSC-30049 in combination with oxaliplatin was administered to colon cancer cell lines, including mismatch repair (MMR) proficient and MMR deficient cancer cell lines (Table 5). MMR proficient colon cancer cell lines tested included HCT-116+ch3 and HT29. MMR deficient cancer cell lines tested included HCT-116 and LoVo. Cells were pre-treated with the indicated concentrations of NSC-33049 for 2 h followed by the treatment with different concentrations of oxaliplatin for additional 48 h. The cell growth inhibition was determined by MTT assay. Data presented are the mean±SE of three different estimations. The p value of Student's t-test as compared to the control is given in parenthesis (* p<0.05; ** p<0.01; *** p<0.001). Increasing the concentration of NSC-30049 decreased the IC50 of oxaliplatin for all cell lines tested, regardless of whether they were MMR proficient or deficient.

HT29 = experiment: MTT assay, MMR-proficient colon cancer cell line; assay type: cell-based
Description: as §1, §2

HCT-116 = experiment: MTT assay, MMR-deficient colon cancer cell line; assay type: cell-based
Description: as §1, §2

LoVo = experiment: MTT assay, MMR-deficient colon cancer cell line; assay type: cell-based
Description: as §1, §2

colon cancer stem cells = experiment: cell growth inhibition of colon cancer stem cells; assay type: cell-based, human; details: alone, 1.25 μM, 72 h
Description: (§3) Cells were treated with 1.25 μM of NSC-30049 and 1.25 μM of OPT either alone or in combination for 72 h. Data are mean±SD of triplicate experiments. […] Cells were treated with 1.25 μM of NSC-30049 and 1.25 μM of OPT either alone or in combination for 72 h. Fold change in gene expression values is shown as mean±SD of three experiments and are normalized to GAPDH gene expression.
(§4) The effect of administration of NSC-30049 in combination with oxaliplatin (OPT) was also examined in human parental cancer cells and colon cancer stem cells (FIG. 9A). Cells were treated with 1.25 μM of NSC-30049 and […] of OPT either alone or in combination for 72 h. Cell growth inhibition was assayed. Data presented are mean±SD of triplicate experiments.

[1] = tested on: human parental cancer cells; experiment: cell growth inhibition of parental cancer cells; assay type: cell-based; details: alone, 1.25 μM, 72 h
Description: as §3, §4

SW480 = experiment: MTT assay, MMR-proficient colon cancer cell line; assay type: cell-based; details: Homo sapiens, SW480, 72 h, read-out: IC50 of TMZ
Description: as §1

A172 = experiment: MTT assay, brain cancer cell line; assay type: cell-based; details: Homo sapiens, A 172, 120 h, read-out: IC50 of TMZ
Description: (§5) The use of NSC-30049 as a chemopreventive agent for the treatment of brain cancer was also tested. NSC-30049 in combination with temozolomide was administered to brain cancer cell lines, including U118, U138, U87MG, A172, and T98 cell lines (Table 6). Cells were pretreated with the indicated concentrations of NSC-30049 followed by TMZ for 120 h. After treatment, cells were processed for the determination of viability by cell proliferation assay (MTT assay). The data from the graph was used for the determination of IC50, which is presented as the mean±SE of three different estimations. Increasing the concentration of NSC-30049 decreased the IC50 of temozolomide for all cell lines tested, regardless of whether they were MMR proficient or deficient.

T98 = experiment: MTT assay, brain cancer cell line; assay type: cell-based; details: Homo sapiens, T98, 120 h, read-out: IC50 of TMZ
Description: as §5

U118 = experiment: MTT assay, brain cancer cell line; assay type: cell-based; details: 120 h, read-out: IC50 of TMZ
Description: as §5

U138 = experiment: MTT assay, brain cancer cell line; assay type: cell-based; details: 120 h, read-out: IC50 of TMZ
Description: as §5

U87MG = experiment: MTT assay, brain cancer cell line; assay type: cell-based; details: Homo sapiens, U-87 MG, 120 h, read-out: IC50 of TMZ
Description: as §5

[2] = NSC-30049 0 μM, 48 h, read-out: IC50 of oxaliplatin
[3] = NSC-30049 1.0 μM, 48 h, read-out: IC50 of oxaliplatin
[4] = NSC-30049 2.5 μM, 48 h, read-out: IC50 of oxaliplatin
[5] = NSC-30049 5.0 μM, 48 h, read-out: IC50 of oxaliplatin
[6] = Homo sapiens, HCT-116, 72 h, NSC-30049 0 μM, 72 h, read-out: IC50 of TMZ
[7] = Homo sapiens, HCT-116, 72 h, NSC-30049 0.5 μM, 72 h, read-out: IC50 of TMZ
[8] = Homo sapiens, HCT-116, 72 h, NSC-30049 1.0 μM, 72 h, read-out: IC50 of TMZ
[9] = Homo sapiens, HCT-116, 72 h, NSC-30049 2.5 μM, 72 h, read-out: IC50 of TMZ

`O=C1[O][Pt]2([NH][C@@H]3CCCC[C@H]3[NH]2)[O]C1=O` [Oxaliplatin, oxaliplatin] was tested, and the IC50 (PANC1; NSC-30049 0 μM) was 14.5 ± 0.38 µM, the IC50 (PANC1; NSC-30049 0.5 μM) was 0.38 ± 0.06 µM and the IC50 (PANC1; NSC-30049 1.0 μM) was 0.13 ± 0.04 µM. For the same compound, the IC50 (PANC1; NSC-30049 2.5 μM) was 0.37 ± 0.22 µM, the IC50 (BxPC3; NSC-30049 0 μM) was 2 ± 0.4 µM and the IC50 (BxPC3; NSC-30049 0.5 μM) was 0.71 ± 0.39 µM. For the same compound, the IC50 (BxPC3; NSC-30049 1.0 μM) was 0.33 ± 0.06 µM, the IC50 (BxPC3; NSC-30049 2.5 μM) was 0.01 µM and the IC50 (HCT-116 + ch3; [2]) was 5.83 ± 0.36 µM. It also gave an IC50 (HCT-116 + ch3; [3]) of 4.98 ± 0.17 µM, an IC50 (HCT-116 + ch3; [4]) of 0.91 ± 0.12 µM and an IC50 (HCT-116 + ch3; [5]) of 0.03 µM. For the same compound, the IC50 (HT29; [2]) was 0.92 ± 0.03 µM, the IC50 (HT29; [3]) was 0.82 ± 0.06 µM and the IC50 (HT29; [4]) was 0.59 ± 0.02 µM. The IC50 (HT29; [5]) was 0.03 µM, the IC50 (HCT-116; [2]) was 1.5 ± 0.01 µM and the IC50 (HCT-116; [3]) was 0.78 ± 0.02 µM. The IC50 (HCT-116; [4]) was 0.03 µM, the IC50 (HCT-116; [5]) was 0.02 µM and the IC50 (LoVo; [2]) was 0.75 ± 0.02 µM. For the same compound, the IC50 (LoVo; NSC-30049 0.5 μM, 48 h, read-out: IC50 of oxaliplatin) was 0.59 ± 0.04 µM, the IC50 (LoVo; [3]) was 0.07 ± 0.02 µM and the IC50 (LoVo; [4]) was 0.03 µM. For the same compound, the inhibition of growth (colon cancer stem cells) was ~40% and the inhibition of growth [1] was ~65%.
`Cn1nnc2c(C(N)=O)ncn2c1=O` [TMZ, Temozolomide] gave an IC50 (SW480; NSC-30049 0 μM) of 377 ± 12 µM, an IC50 (SW480; NSC-30049 0.5 μM) of 325 ± 18 µM and an IC50 (SW480; NSC-30049 1.0 μM) of 167 ± 49 µM. The IC50 (SW480; NSC-30049 2.5 μM) was 0.47 ± 0.03 µM, the IC50 (HCT-116 + ch3; [6]) was 236 ± 23 µM and the IC50 (HCT-116 + ch3; [7]) was 206 ± 13 µM. For the same compound, the IC50 (HCT-116 + ch3; [8]) was 153 ± 10 µM, the IC50 (HCT-116 + ch3; [9]) was 0.73 ± 0.04 µM and the IC50 (HCT-116 + ch3; Homo sapiens, HCT-116, 72 h, NSC-30049 5.0 μM, 72 h, read-out: IC50 of TMZ) was 0.35 ± 0.01 µM. The IC50 (HT29; Homo sapiens, HT-29, 72 h, NSC-30049 0 μM, 72 h, read-out: IC50 of TMZ) was 1450 ± 144 µM, the IC50 (HT29; Homo sapiens, HT-29, 72 h, NSC-30049 0.5 μM, 72 h, read-out: IC50 of TMZ) was 1270 ± 60 µM and the IC50 (HT29; Homo sapiens, HT-29, 72 h, NSC-30049 1.0 μM, 72 h, read-out: IC50 of TMZ) was 815 ± 93 µM. It also gave an IC50 (HT29; Homo sapiens, HT-29, 72 h, NSC-30049 2.5 μM, 72 h, read-out: IC50 of TMZ) of 248 ± 59 µM, an IC50 (HT29; Homo sapiens, HT-29, 72 h, NSC-30049 5.0 μM, 72 h, read-out: IC50 of TMZ) of 5.33 ± 0.07 µM and an IC50 (HCT-116; [6]) of 620 ± 11 µM. It also gave an IC50 (HCT-116; [7]) of 361 ± 10 µM, an IC50 (HCT-116; [8]) of 160 ± 63 µM and an IC50 (HCT-116; [9]) of 3.81 ± 0.11 µM. It also gave an IC50 (LoVo; Homo sapiens, 72 h, NSC-30049 0 μM, 72 h, read-out: IC50 of TMZ) of 1106 ± 0.02 µM, an IC50 (LoVo; Homo sapiens, 72 h, NSC-30049 0.5 μM, 72 h, read-out: IC50 of TMZ) of 366 ± 6 µM and an IC50 (LoVo; Homo sapiens, 72 h, NSC-30049 1.0 μM, 72 h, read-out: IC50 of TMZ) of 8 ± 0.8 µM. For the same compound, the IC50 (LoVo; Homo sapiens, 72 h, NSC-30049 2.5 μM, 72 h, read-out: IC50 of TMZ) was 3.82 ± 0.09 µM, the IC50 (A172; NSC-30049 0 μM) was 154 ± 6.8 µM and the IC50 (A172; NSC-30049 1.0 μM) was 89.5 ± 7.8 µM. The IC50 (A172; NSC-30049 2.5 μM) was 82.9 ± 5.1 µM, the IC50 (A172; NSC-30049 5.0 μM) was 75.1 ± 5.2 µM and the IC50 (T98; NSC-30049 0 μM) was 554 ± 53.9 µM. For the same compound, the IC50 (T98; NSC-30049 1.0 μM) was 511 ± 14.7 µM, the IC50 (T98; NSC-30049 2.5 μM) was 382 ± 5.9 µM and the IC50 (T98; NSC-30049 5.0 μM) was 245 ± 8.7 µM. It also gave an IC50 (U118; NSC-30049 0 μM) of 136 ± 3.7 µM, an IC50 (U118; NSC-30049 1.0 μM) of 78.4 ± 1.3 µM and an IC50 (U118; NSC-30049 2.5 μM) of 14.5 ± 2.5 µM. For the same compound, the IC50 (U118; NSC-30049 5.0 μM) was 1.1 ± 3 µM, the IC50 (U138; NSC-30049 0 μM) was 432 ± 19.1 µM and the IC50 (U138; NSC-30049 1.0 μM) was 278 ± 14.6 µM. The IC50 (U138; NSC-30049 2.5 μM) was 3.8 ± 0.4 µM, the IC50 (U138; NSC-30049 5.0 μM) was 0.8 ± 0.02 µM and the IC50 (U87MG; NSC-30049 0 μM) was 493 ± 83.9 µM. For the same compound, the IC50 (U87MG; NSC-30049 1.0 μM) was 33 ± 5.1 µM, the IC50 (U87MG; NSC-30049 2.5 μM) was 19.9 ± 10.5 µM and the IC50 (U87MG; NSC-30049 5.0 μM) was 13.7 ± 8.5 µM.
